Experimental data from US7297714B2, “Inhibitors of cathepsin S” (IRM LLC, priority 2003, dated 2007).

Columns and labels:
Type in all cases: biochemical
Cathepsin K = biological target: T1, Cathepsin K (Homo sapiens, UniProt P43235); assay: Cathepsin K inhibition assay, selectivity for cathepsin S over cathepsin K; details: ratio of cathepsin K inhibition constant to cathepsin S inhibition constant
T1 sequence (P43235 115-329): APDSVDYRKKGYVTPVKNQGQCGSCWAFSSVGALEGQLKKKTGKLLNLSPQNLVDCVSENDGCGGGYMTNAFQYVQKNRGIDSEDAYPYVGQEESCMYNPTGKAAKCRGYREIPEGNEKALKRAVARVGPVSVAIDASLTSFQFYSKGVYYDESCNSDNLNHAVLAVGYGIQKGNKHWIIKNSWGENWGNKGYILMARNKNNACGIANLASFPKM
Procedure: (§1) The optimal substrate for cathepsin K, acetyl-lysine-histidine-proline-lysine-amino carbamoyl coumarin, was identified from screening a combinatorial library of fluorogenic peptide substrates (Harris, J. L., B. J. Backes, et al., Proc Natl Acad Sci USA 2000, 97(14), 7754-9). Kinetic measurements are performed in a total reaction volume of 30 μl in 384-well microtiter plates. Cathepsin K, at a final concentration of 3.5 nM (active site), is incubated with the compounds at twelve varying concentrations in a buffer containing 100 mM NaAc (pH5.5), 1 mM EDTA, 100 mM NaCl, 0.01% Brij-35 for 20 minutes at room temperature. Control reactions in the absence of inhibitor are performed in replicates of 24. The reactions are initiated by adding the substrate, acetyl-lysine-histidine-proline-lysine-amino carbamoyl coumarin, to a final concentration of 40 μM. The rate of substrate hydrolysis is measured by monitoring the increase in fluorescence at an excitation wavelength of 380 nm and an emission wavelength of 450 nm that results from cleavage of the aniline bond in the substrate by the enzyme. The apparent inhibition constants for the compounds are determined from the enzyme progress curves (Kuzmic, P., K. C. Elrod, et al., Anal Biochem 2000, 286(1), 45-50) and are then used to calculate the inhibition constants for competitive inhibitors.
(§2) Selectivity for cathepsin S in the presence of cathepsin isozymes was determined by the ratio of the cathepsin isozyme inhibition constant of a compound of the present invention to the cathepsin S inhibition constant of the same compound. Preferred compounds of the present invention selective for cathepsin S have ratios of greater than 10. More preferred compounds of the present invention selective for cathepsin S have ratios of greater than 100. Most preferred compounds of the present invention selective for cathepsin S have ratios of greater than 1000.

Cathepsin L = Cathepsin L (Homo sapiens, UniProt P07711); assay: Cathepsin L inhibition assay, selectivity for cathepsin S over cathepsin L; details: ratio of cathepsin L inhibition constant to cathepsin S inhibition constant
Procedure: as §1, with “for cathepsin L, acetyl-histidine-lysine-phenylalanine-lysine-amino carbamoyl coumarin,” for “for cathepsin K, acetyl-lysine-histidine-proline-lysine-amino carbamoyl coumarin,”, “Backes, et al.; Proc Natl” for “Backes, et al., Proc Natl”, “plates. Cathepsin L, at a” for “plates. Cathepsin K, at a”, “concentration of 0.1 nM (active” for “concentration of 3.5 nM (active”, “the substrate, acetyl-histidine-lysine-phenylalanine-lysine-amino carbamoyl coumarin,” for “the substrate, acetyl-lysine-histidine-proline-lysine-amino carbamoyl coumarin,”, “concentration of 20 μM. The” for “concentration of 40 μM. The”
as §2

Cathepsin S = Cathepsin S (Homo sapiens, UniProt P25774); assay: Cathepsin S inhibition assay (fluorogenic peptide substrate); details: Cathepsin S inhibition constant; pH5.5; read-out: Ki Cat. S
Source text: “Inhibition constant”, Ki, is the dissociation constant of the enzyme-inhibitor complex, or the reciprocal of the binding affinity of the inhibitor to the enzyme. For classical inhibition the value of Ki is much greater than the enzyme concentration and the Ki can be measured by monitoring the rate of reaction for a competitive substrate at multiple inhibitor concentrations. The inhibited rates are then fit by nonlinear regression to the following equation: […]
The assumption being made for the classical inhibition described above is that the free inhibitor concentration is equal to the total inhibitor concentration. For inhibitors that have Ki's that are approximately equal to the enzyme concentration [E], the assumption that the free inhibitor concentration is equal to the total inhibitor concentration is no longer valid and an alternative equation has to be fit for determination of the apparent inhibition constant, Ki^app using described methods (Kuzmic, P., K. C. Elrod, et al., Anal Biochem 2000, 286(1), 45-50):
as §1, with “S, acetyl-histidine-proline-valine-lysine-amino” for “K, acetyl-lysine-histidine-proline-lysine-amino”, “U S A” for “USA”, “S,” for “K,”, “0.3-3” for “3.5”, “acetyl-histidine-proline-valine-lysine-amino” for “acetyl-lysine-histidine-proline-lysine-amino”, “50” for “40”

Cathepsin B = Cathepsin B (Homo sapiens, UniProt P07858); assay: Cathepsin B inhibition assay, selectivity for cathepsin S over cathepsin B; details: ratio of cathepsin B inhibition constant to cathepsin S inhibition constant
Procedure: as §1, with “B, acetyl-histidine-proline-valine-lysine-amino” for “K, acetyl-lysine-histidine-proline-lysine-amino”, “US A” for “USA”, “B,” for “K,”, “1.5” for “3.5”, “acetyl-histidine-proline-valine-lysine-amino” for “acetyl-lysine-histidine-proline-lysine-amino”, “10” for “40”
as §2

Sequence of Cathepsin L (P07711 114-333, species assumed): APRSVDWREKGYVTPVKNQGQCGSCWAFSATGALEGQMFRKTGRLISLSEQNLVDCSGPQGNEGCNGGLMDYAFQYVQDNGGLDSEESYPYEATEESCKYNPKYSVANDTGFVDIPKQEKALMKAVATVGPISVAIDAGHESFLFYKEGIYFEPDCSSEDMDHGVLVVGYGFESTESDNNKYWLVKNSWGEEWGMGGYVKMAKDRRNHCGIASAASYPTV
Sequence of Cathepsin S (P25774 115-331, species assumed): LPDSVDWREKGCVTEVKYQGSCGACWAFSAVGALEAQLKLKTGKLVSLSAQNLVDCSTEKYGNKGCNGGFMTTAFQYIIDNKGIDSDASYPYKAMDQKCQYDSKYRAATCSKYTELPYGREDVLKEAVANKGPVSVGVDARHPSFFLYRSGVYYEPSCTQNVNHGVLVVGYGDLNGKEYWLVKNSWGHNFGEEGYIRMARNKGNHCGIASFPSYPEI

Row | Structure (SMILES) | Selectivity for Cat. S over Cat. K (Cathepsin K) | Selectivity for Cat. S over Cat. L (Cathepsin L) | Ki (Cathepsin S) [µM] | Selectivity for Cat. S over Cat. B (Cathepsin B)
1 | COC1OC(=O)C[C@@H]1NC(=O)[C@H](CC1CCCCC1)NC(=O)c1ccc(-c2cccc(F)c2)o1 (stereo partly drawn) [Example 16, (3S)-[3-Cyclohexyl-(2S)-{[5-(3-fluoro-phenyl)-furan-2-carbonyl]-amino}propionylamino]-2-methoxy-5-oxo-tetrahydrofuran] | + (+, >10) | + (+, >10) | < 1 | + (+, >10)
2 | O=C1C[C@H](NC(=O)[C@H](CC2CCCC2)NC(=O)c2cccc(C(F)(F)F)c2)C(O)O1 (stereo partly drawn) [Example 24, (3S)-(3-Cyclopentyl-(2S)-(3-trifluoromethylphenyl-carbonylamino)-propionylamino)-4-oxo-butyric acid] | ++ (++, >100) | + (+, >10) | < 0.1 | +++ (+++, >1000)
